Test results from publication PMC9090415, “Discovery of small molecule inhibitors of Plasmodium falciparum apicoplast DNA polymerase” (Journal of Enzyme Inhibition and Medicinal Chemistry, 2022).

Target: P. falciparum apicoplast DNA polymerase (Pf-apPOL) (Plasmodium falciparum, UniProt Q8ILY1)
Experiment: Fluorescence-based high-throughput DNA polymerase assay (molecular beacon), primary screen and dose-response
Format: biochemical
In short: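 Single-point screening used 10 µM compound with 20 nM polymerase, 20 nM hairpin substrate and 6 µM dNTPs for 90 min at 25 °C. Confirmatory titrations (2.5–80 µM) followed fluorescence at three times, and IC50 was derived from a fit including a cooperativity term n.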

[1] = primary screen value of the 186 hits; unit not given; 90 min, 10 µM
[2] = supplemental file 2, sheet IC50 nontoxic compounds; Pf-apPOL

P. falciparum apicoplast DNA polymerase (Pf-apPOL), sequence (Q8ILY1 entry or part of it): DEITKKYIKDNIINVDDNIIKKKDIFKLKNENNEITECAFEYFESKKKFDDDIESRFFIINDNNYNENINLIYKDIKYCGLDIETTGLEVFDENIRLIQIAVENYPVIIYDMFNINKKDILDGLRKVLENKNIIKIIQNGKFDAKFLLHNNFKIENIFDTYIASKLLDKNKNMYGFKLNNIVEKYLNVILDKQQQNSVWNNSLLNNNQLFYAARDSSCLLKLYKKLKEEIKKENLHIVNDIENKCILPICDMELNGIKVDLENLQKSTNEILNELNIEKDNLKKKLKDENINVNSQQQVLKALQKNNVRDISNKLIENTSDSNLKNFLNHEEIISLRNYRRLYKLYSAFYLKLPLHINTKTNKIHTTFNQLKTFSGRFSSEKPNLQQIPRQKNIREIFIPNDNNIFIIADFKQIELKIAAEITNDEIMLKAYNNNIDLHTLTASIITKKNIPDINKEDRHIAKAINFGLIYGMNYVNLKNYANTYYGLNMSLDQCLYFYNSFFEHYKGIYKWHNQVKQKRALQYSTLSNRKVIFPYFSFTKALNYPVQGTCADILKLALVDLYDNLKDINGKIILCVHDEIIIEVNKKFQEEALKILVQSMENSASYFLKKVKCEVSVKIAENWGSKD

**Q.** What does the source list for `COc1ccc(C=C2Oc3c(ccc4c3CN(c3ccc5c(c3)OCO5)CO4)C2=O)cc1OC` [KU0199426]?
**A.** % inhibition Apo pol 10' (DRC-1; 10'; concentration 2.5): 6.7092%; % inhibition Apo pol 10' (DRC-1; 10'; concentration 5): 10.8011%; % inhibition Apo pol 10' (DRC-1; 10'; concentration 10): 30.1784%; % inhibition Apo pol 10' (DRC-1; 10'; concentration 20): 49.962%; % inhibition Apo pol 10' (DRC-1; 10'; concentration 40): 63.2111%; % inhibition Apo pol 10' (DRC-1; 10'; concentration 80): 69.0086%; % inhibition Apol 90' (DRC-1; 90'; concentration 2.5): 9.888%; % inhibition Apol 90' (DRC-1; 90'; concentration 5): 17.5134%; % inhibition Apol 90' (DRC-1; 90'; concentration 10): 37.0525%; % inhibition Apol 90' (DRC-1; 90'; concentration 20): 55.1818%; % inhibition Apol 90' (DRC-1; 90'; concentration 40): 69.2799%; % inhibition Apol 90' (DRC-1; 90'; concentration 80): 72.5355%; % inhibition apPOL 180' (DRC-1; 180'; concentration 2.5): 14.753%; % inhibition apPOL 180' (DRC-1; 180'; concentration 5): 23.9693%; % inhibition apPOL 180' (DRC-1; 180'; concentration 10): 43.333%; % inhibition apPOL 180' (DRC-1; 180'; concentration 20): 61.4424%; % inhibition apPOL 180' (DRC-1; 180'; concentration 40): 79.6981%; % inhibition apPOL 180' (DRC-1; 180'; concentration 80): 86.1468%; % inhibition Apo pol 5' (DRC-2; 5'; concentration 2.5): 6.46%; % inhibition Apo pol 5' (DRC-2; 5'; concentration 5): 7.39%; % inhibition Apo pol 5' (DRC-2; 5'; concentration 10): 27%; % inhibition Apo pol 5' (DRC-2; 5'; concentration 20): 45%; % inhibition Apo pol 5' (DRC-2; 5'; concentration 40): 42%; % inhibition Apo pol 5' (DRC-2; 5'; concentration 80): 45%; % inhibition Apol 40' (DRC-2; 40'; concentration 2.5): 6%; % inhibition Apol 40' (DRC-2; 40'; concentration 5): -2.71%; % inhibition Apol 40' (DRC-2; 40'; concentration 10): 30%; % inhibition Apol 40' (DRC-2; 40'; concentration 20): 63%; % inhibition Apol 40' (DRC-2; 40'; concentration 40): 43%; % inhibition Apol 40' (DRC-2; 40'; concentration 80): 44%; % inhibition ApPOL 90' (DRC-2; 90'; concentration 2.5): 4.67%; % inhibition ApPOL 90' (DRC-2; 90'; concentration 5): -12%; % inhibition ApPOL 90' (DRC-2; 90'; concentration 10): 27%; % inhibition ApPOL 90' (DRC-2; 90'; concentration 20): 69%; % inhibition ApPOL 90' (DRC-2; 90'; concentration 40): 41%; % inhibition ApPOL 90' (DRC-2; 90'; concentration 80): 43%; % inhibition apPOL 180' (DRC-2; 180'; concentration 2.5): -0.788%; % inhibition apPOL 180' (DRC-2; 180'; concentration 5): -86%; % inhibition apPOL 180' (DRC-2; 180'; concentration 10): 16%; % inhibition apPOL 180' (DRC-2; 180'; concentration 20): 76%; % inhibition apPOL 180' (DRC-2; 180'; concentration 40): 34%; % inhibition apPOL 180' (DRC-2; 180'; concentration 80): 39%; % inhibition Apo pol 5' (conc. 10; 5'; DRC-2): 27%; % inhibition ApPOL 90' (conc. 10; 90'; DRC-2): 27%; % inhibition Apo pol 5' (conc. 20; 5'; DRC-2): 45%; % inhibition Apol 40' (conc. 40; 40'; DRC-2): 43%; % inhibition Apo pol 5' (conc. 80; 5'; DRC-2): 45%; % inhibition ApPOL 90' (conc. 80; 90'; DRC-2): 43%; DNA Pol (primary screen value by plate and well; 90 min, 10 µM): 28; DNA Pol [1]: 28

**Q.** Which results are given for `CCCN1COc2ccc3c(=O)c(-c4ccccc4)coc3c2C1` [KU0199556]?
**A.** % inhibition Apo pol 10' (DRC-1; concentration 2.5; 10'): 3.335%; % inhibition Apol 90' (DRC-1; concentration 2.5; 90'): 6.953%; % inhibition apPOL 180' (DRC-1; concentration 2.5; 180'): 12.8227%; % inhibition Apo pol 10' (DRC-1; concentration 5; 10'): 0.6816%; % inhibition Apol 90' (DRC-1; concentration 5; 90'): 8.234%; % inhibition apPOL 180' (DRC-1; concentration 5; 180'): 17.5775%; % inhibition Apo pol 10' (DRC-1; concentration 10; 10'): 12.2491%; % inhibition Apol 90' (DRC-1; concentration 10; 90'): 22.7546%; % inhibition apPOL 180' (DRC-1; concentration 10; 180'): 37.4083%; % inhibition Apo pol 10' (DRC-1; concentration 20; 10'): 29.2216%; % inhibition Apol 90' (DRC-1; concentration 20; 90'): 42.6091%; % inhibition apPOL 180' (DRC-1; concentration 20; 180'): 58.6511%; % inhibition Apo pol 10' (DRC-1; concentration 40; 10'): 57.482%; % inhibition Apol 90' (DRC-1; concentration 40; 90'): 69.5557%; % inhibition apPOL 180' (DRC-1; concentration 40; 180'): 84.4582%; % inhibition Apo pol 10' (DRC-1; concentration 80 (unit not given); 10'): 71.548%; % inhibition Apol 90' (DRC-1; concentration 80; 90'): 77.7995%; % inhibition apPOL 180' (DRC-1; concentration 80; 180'): 92.1066%; % inhibition Apo pol 5' (DRC-2; 5'; concentration 80): 51%; % inhibition Apol 40' (DRC-2; 40'; concentration 80): 51%; % inhibition ApPOL 90' (DRC-2; 90'; concentration 20): 39%; % inhibition ApPOL 90' (DRC-2; 90'; concentration 40): 51%; % inhibition apPOL 180' (DRC-2; 180'; concentration 80): 39%; % inhibition Apo pol 5' (DRC-2; concentration 2.5; 5'): 7.48%; % inhibition Apol 40' (DRC-2; concentration 2.5; 40'): 5%; % inhibition ApPOL 90' (DRC-2; concentration 2.5; 90'): 3.57%; % inhibition apPOL 180' (DRC-2; concentration 2.5; 180'): -2.43%; % inhibition Apo pol 5' (DRC-2; concentration 5; 5'): 10%; % inhibition Apol 40' (DRC-2; concentration 5; 40'): 0.118%; % inhibition ApPOL 90' (DRC-2; concentration 5; 90'): -8%; % inhibition apPOL 180' (DRC-2; concentration 5; 180'): -84%; % inhibition Apo pol 5' (DRC-2; concentration 10; 5'): 25%; % inhibition Apol 40' (DRC-2; concentration 10; 40'): 23%; % inhibition ApPOL 90' (DRC-2; concentration 10; 90'): 20%; % inhibition apPOL 180' (DRC-2; concentration 10; 180'): 6.45%; % inhibition Apo pol 5' (DRC-2; concentration 20; 5'): 41%; % inhibition Apol 40' (DRC-2; concentration 20; 40'): 42%; % inhibition ApPOL 90' (DRC-2; concentration 20; 90'): 39%; % inhibition apPOL 180' (DRC-2; concentration 20; 180'): 22%; % inhibition Apo pol 5' (DRC-2; concentration 40; 5'): 52%; % inhibition Apol 40' (DRC-2; concentration 40; 40'): 55%; % inhibition ApPOL 90' (DRC-2; concentration 40; 90'): 51%; % inhibition apPOL 180' (DRC-2; concentration 40; 180'): 38%; % inhibition Apo pol 5' (DRC-2; concentration 80; 5'): 51%; % inhibition Apol 40' (DRC-2; concentration 80; 40'): 51%; % inhibition ApPOL 90' (DRC-2; concentration 80; 90'): 48%; % inhibition apPOL 180' (DRC-2; concentration 80; 180'): 39%; DNA Pol [1]: 28; DNA Pol (primary screen value; head prints only 'DNA Pol'; 90 min, 10 µM): 28

**Q.** How did the IC50 [2] turn out when `O=C(Cn1ccc2c(=O)[nH]ccc21)Nc1ccc(Cl)cc1` [Molecule 36] was run?
**A.** The IC50 was 12.8 µM.

**Q.** How did the IC50 [2] turn out when `CCN1C(=O)C(=Cc2cccc(OC)c2O)SC1=S` [Molecule 78] was run?
**A.** Its IC50 is 35 µM.
